Laboratory results taken from the supplement of paper PMC10307832.

Experiments:
Assay in all cases: relative viability (nuclei count vs DMSO), 5 days (fraction); higher = more cells survive
Serdemetan + Palbociclib = compound: c1ccc2c(CCNc3ccc(Nc4ccncc4)cc3)c[nH]c2c1 [Serdemetan] + CC(=O)c1c(C)c2cnc(Nc3ccc(N4CCNCC4)cn3)nc2n(C2CCCC2)c1=O [Palbociclib] (partner 0.5 µM)
Method in brief: (§1)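 Cells from lung cancer lines were seeded into 1536-well plates and, one day later, dosed by pin tool. Treatments were either a single drug or a fixed dose of an anchor drug with five library-drug doses (not always all listed) in √10 steps. After 5 days, nuclei were stained in a one-step fixation (final 0.05% Triton X-100, 1% formaldehyde, 1 ug/ml Hoechst) and counted on 4× images, and relative viability is the treated-to-vehicle nuclei ratio, as the median of duplicate plates.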

Serdemetan + Linsitinib = compound: c1ccc2c(CCNc3ccc(Nc4ccncc4)cc3)c[nH]c2c1 [Serdemetan] + C[C@]1(O)C[C@@H](c2nc(-c3ccc4ccc(-c5ccccc5)nc4c3)c3c(N)nccn32)C1 [Linsitinib] (partner 1 µM)
Method in brief: as §1

Serdemetan + Navitoclax = compound: c1ccc2c(CCNc3ccc(Nc4ccncc4)cc3)c[nH]c2c1 [Serdemetan] + CC1(C)CCC(c2ccc(Cl)cc2)=C(CN2CCN(c3ccc(C(=O)NS(=O)(=O)c4ccc(N[C@H](CCN5CCOCC5)CSc5ccccc5)c(S(=O)(=O)C(F)(F)F)c4)cc3)CC2)C1 [Navitoclax] (partner 0.5 µM)
Method in brief: as §1

Selisistat + Tozasertib = compound: C1CC(C2=C(C1)C3=C(N2)C=CC(=C3)Cl)C(=O)N [Selisistat] + Cc1cc(Nc2cc(N3CCN(C)CC3)nc(Sc3ccc(NC(=O)C4CC4)cc3)n2)n[nH]1 [Tozasertib] (partner 0.1 µM)
Method in brief: as §1

| Cell Line | relative viability (Serdemetan + Palbociclib; first compound 0.04 µM) | relative viability (Serdemetan + Palbociclib; first compound 0.1265 µM) | relative viability (Serdemetan + Palbociclib; first compound 0.4 µM) | relative viability (Serdemetan + Palbociclib; first compound 1.265 µM) | relative viability (Serdemetan + Palbociclib; first compound 4 µM) | relative viability (Serdemetan + Linsitinib; first compound 0.04 µM) | relative viability (Serdemetan + Linsitinib; first compound 0.1265 µM) | relative viability (Serdemetan + Linsitinib; first compound 0.4 µM) | relative viability (Serdemetan + Linsitinib; first compound 1.265 µM) | relative viability (Serdemetan + Linsitinib; first compound 4 µM) | relative viability (Serdemetan + Navitoclax; first compound 0.04 µM) | relative viability (Serdemetan + Navitoclax; first compound 0.1265 µM) | relative viability (Serdemetan + Navitoclax; first compound 0.4 µM) | relative viability (Serdemetan + Navitoclax; first compound 1.265 µM) | relative viability (Serdemetan + Navitoclax; first compound 4 µM) | relative viability (Selisistat + Tozasertib; first compound 0.4 µM) | relative viability (Selisistat + Tozasertib; first compound 1.265 µM) | relative viability (Selisistat + Tozasertib; first compound 4 µM) | relative viability (Selisistat + Tozasertib; first compound 12.65 µM) | relative viability (Selisistat + Tozasertib; first compound 40 µM) |
| --- | --- | --- | --- | --- | --- | --- | --- | --- | --- | --- | --- | --- | --- | --- | --- | --- | --- | --- | --- | --- |
| NCI-H1975 | 0.691 | 0.662 | 0.434 | 0.331 | 0.783 | 1.01 | 1.04 | 0.974 | 0.985 | 1.19 | 1.01 | 0.998 | 1.2 | 1.05 | 1.24 | 0.715 | 0.63 | 0.69 | 0.48 | 0.396 |
| CAL-12T | 0.467 | 0.422 | 0.35 | 0.424 | 0.539 | 0.77 | 0.793 | 0.698 | 0.864 | 0.651 | 1.3 | 1.42 | 1.26 |  | 1.19 | 0.306 | 0.239 | 0.328 | 0.27 | 0.255 |
| NCI-H1623 |  |  |  |  |  |  |  |  |  |  |  |  |  |  |  | 0.445 | 0.433 | 0.355 | 0.407 | 0.405 |
| HCC-44 | 0.927 | 0.93 | 0.953 | 0.92 | 0.922 | 0.637 | 0.634 | 0.598 | 0.426 | 0.424 | 1.13 | 1.04 | 0.972 | 0.756 | 0.741 | 0.968 |  |  | 0.848 | 0.931 |
| EKVX | 0.456 | 0.374 |  |  | 0.282 | 0.997 | 0.971 | 0.861 | 0.968 | 0.639 | 0.862 | 0.888 | 0.973 | 0.791 | 0.91 | 0.352 | 0.37 | 0.421 | 0.376 | 0.369 |
| NCI-H1651 | 0.51 | 0.499 | 0.523 | 0.358 | 0.29 | 0.822 | 0.724 | 0.509 | 0.355 | 0.268 | 0.826 | 0.808 | 0.557 | 0.256 | 0.226 | 0.7 | 0.735 | 0.599 | 0.618 | 0.584 |
| NCI-H1944 | 0.364 | 0.355 | 0.31 | 0.253 | 0.221 | 1.23 | 1.17 | 1.06 |  | 0.6 | 1.07 | 1.04 | 0.978 |  | 0.376 | 0.273 | 0.243 |  | 0.231 | 0.256 |
| NCI-H1703 |  |  |  |  |  | 0.515 | 1.04 | 0.765 | 0.654 | 0.608 | 1.05 | 1.24 | 1.17 | 0.958 | 0.951 |  |  |  |  |  |
| Calu-6 |  |  |  |  |  | 0.895 | 0.962 | 0.958 | 0.913 | 0.698 | 0.973 | 0.869 | 0.682 | 0.687 | 0.493 |  |  |  |  |  |
| EBC-1 |  |  |  |  |  | 0.807 | 0.904 | 0.952 | 0.794 | 0.634 | 0.553 | 0.47 | 0.41 | 0.424 | 0.341 |  |  |  |  |  |
| SW 1573 | 0.446 | 0.362 | 0.444 | 0.343 | 0.234 | 0.81 | 0.769 | 0.738 | 0.346 | 0.258 | 0.898 | 0.876 | 1.02 | 0.303 | 0.105 | 0.206 | 0.175 | 0.175 | 0.206 | 0.184 |
| A-427 | 0.533 | 0.497 | 0.525 | 0.462 | 0.444 | 1.06 | 1.04 | 1.07 | 0.883 | 0.576 | 0.967 | 0.971 | 0.882 | 0.724 | 0.615 | 0.207 | 0.194 | 0.182 | 0.226 | 0.183 |
| NCI-H2347 | 0.448 | 0.367 | 0.403 | 0.358 | 0.406 | 0.753 | 0.965 | 0.959 | 0.666 | 0.679 | 0.737 | 0.779 | 0.712 | 0.624 | 0.374 | 0.606 | 0.733 | 0.427 | 0.617 | 0.583 |
| NCI-H1355 | 0.381 | 0.381 | 0.366 | 0.371 | 0.366 | 0.82 | 0.711 | 0.746 | 0.75 | 0.683 | 1.01 | 0.863 | 0.944 | 0.915 | 0.78 | 0.599 | 0.648 | 0.519 | 0.497 | 0.589 |
| NCI-H358 | 0.134 | 0.135 | 0.132 | 0.122 | 0.117 | 0.672 | 0.781 | 0.679 | 0.465 | 0.651 |  |  |  |  |  | 0.0984 | 0.1 | 0.102 | 0.092 | 0.0962 |
| PC-3 [JPC-3] | 0.562 | 0.492 | 0.528 | 0.467 | 0.519 | 0.92 | 0.972 |  | 0.919 | 0.985 | 0.747 | 0.713 |  | 0.76 | 0.762 | 0.917 | 0.853 | 0.82 | 0.857 | 0.915 |
| NCI-H2228 | 0.644 | 0.61 | 0.511 | 0.115 | 0.233 | 0.806 | 0.68 | 0.519 | 0.59 | 0.397 | 0.878 | 0.782 | 0.86 | 0.34 | 0.199 | 0.315 | 0.223 | 0.29 | 0.315 | 0.217 |
| HOP-62 | 0.466 | 0.469 | 0.545 | 0.3 | 0.209 | 1.02 | 0.934 | 0.968 | 0.738 | 0.47 | 1.08 | 0.942 | 1.05 | 0.944 | 0.962 | 0.362 | 0.383 | 0.464 | 0.375 | 0.372 |
| HARA | 0.269 | 0.264 | 0.228 | 0.236 | 0.223 | 0.948 | 0.865 | 0.854 |  | 0.441 | 1.12 | 1.11 | 1.09 |  | 0.757 | 0.137 | 0.12 | 0.119 | 0.154 | 0.1 |
